Measurements: publication PMC4268243 (Nuclear medicine and biology, 2014)

Experiments:
[1] = tested on: DU145 androgen-independent prostate carcinoma cells; test: Amino acid uptake and inhibition in DU145 cells; format: cell-based, human; conditions: DU145, 30 minutes incubation
A549 tumor xenograft = test: Biodistribution in A549 tumor-bearing SCID mice; format: in vivo; conditions: listed as (R)-[^18F] FAMP 1
DU145 tumor xenograft = test: Biodistribution in DU145 tumor-bearing SCID mice; format: in vivo; conditions: listed as (R)-[^18F] FAMP 1
[2] = tested on: SKOV3 estrogen-positive ovarian adenocarcinoma cells; test: Amino acid uptake and inhibition in SKOV3 cells; format: cell-based, human; conditions: for Cell uptake: SKOV3, 30 minutes incubation
[3] = tested on: human A549, DU145, U87, MDA MB468 and SKOV3 tumor cells; test: Amino acid uptake and inhibition, summary over the five tumor cell lines; format: cell-based

## CC(N)(C[18F])C(=O)O [(R)-[^18F]1] [2-amino-3-[^18F]fluoro-2-methylpropanoic acid]
[1]; 10 mM BCH
  Cell uptake: 3.3±0.2 % ID/5×10^5 cells
[1]; 10 mM MeAIB
  Cell uptake: 3.6±0.2 % ID/5×10^5 cells
[1]; Control (no inhibitor)
  Cell uptake: 5.1±0.1 % ID/5×10^5 cells
A549 tumor xenograft; 15 min post injection
  uptake in blood: 2.9±0.4 %ID/g
  uptake in bone: 2.6±0.6 %ID/g
  uptake in brain: 0.8±0.2 %ID/g
  uptake in heart: 4.4±01.0 %ID/g
  uptake in kidney: 18±3.5 %ID/g
  uptake in liver: 4.8±0.5 %ID/g
  uptake in lung: 5.0±0.9 %ID/g
  uptake in muscle: 2.0±0.4 %ID/g
  uptake in pancreas: 54±14 %ID/g
  uptake in spleen: 9.5±3.9 %ID/g
  uptake in tumor: 9.9±1.7 %ID/g
A549 tumor xenograft; 30 min post injection
  uptake in blood: 2.0±0.2 %ID/g
  uptake in bone: 2.3±0.6 %ID/g
  uptake in brain: 0.9±0.2 %ID/g
  uptake in heart: 3.5±1.0 %ID/g
  uptake in kidney: 10±1.9 %ID/g
  uptake in liver: 5.7±1.2 %ID/g
  uptake in lung: 3.1±1.0 %ID/g
  uptake in muscle: 2.0±0.6 %ID/g
  uptake in pancreas: 43±11 %ID/g
  uptake in spleen: 7.8±1.6 %ID/g
  uptake in tumor: 7.5±1.9 %ID/g
A549 tumor xenograft; 60 min post injection
  uptake in blood: 1.3±0.1 %ID/g
  uptake in bone: 2.0±0.6 %ID/g
  uptake in brain: 1.1±0.3 %ID/g
  uptake in heart: 3.5±0.9 %ID/g
  uptake in kidney: 6.6±1.0 %ID/g
  uptake in liver: 5.3±1.1 %ID/g
  uptake in lung: 2.3±0.5 %ID/g
  uptake in muscle: 1.8±0.2 %ID/g
  uptake in pancreas: 28±6.3 %ID/g
  uptake in spleen: 5.1±1.8 %ID/g
  uptake in tumor: 7.7±1.9 %ID/g
A549 tumor xenograft; 120 min post injection
  uptake in blood: 1.3±0.9 %ID/g
  uptake in bone: 2.2±1.1 %ID/g
  uptake in brain: 1.8±0.9 %ID/g
  uptake in heart: 3.9±1.5 %ID/g
  uptake in kidney: 5.5±3.1 %ID/g
  uptake in liver: 7.1±2.4 %ID/g
  uptake in lung: 1.9±0.6 %ID/g
  uptake in muscle: 2.3±1.2 %ID/g
  uptake in pancreas: 20±7.1 %ID/g
  uptake in spleen: 4.9±3.1 %ID/g
  uptake in tumor: 8.8±4.8 %ID/g
DU145 tumor xenograft; 15 min post injection
  uptake in blood: 5.2±1.2 %ID/g
  uptake in bone: 3.9±1.0 %ID/g
  uptake in brain: 1.0±0.3 %ID/g
  uptake in heart: 5.8±1.5 %ID/g
  uptake in kidney: 26±7.5 %ID/g
  uptake in liver: 7.2±3.4 %ID/g
  uptake in lung: 7.6±1.8 %ID/g
  uptake in muscle: 2.9±0.7 %ID/g
  uptake in pancreas: 62±20 %ID/g
  uptake in spleen: 17±7.6 %ID/g
  uptake in tumor: 8.8±1.9 %ID/g
DU145 tumor xenograft; 30 min post injection
  uptake in blood: 3.7±0.3 %ID/g
  uptake in bone: 4.0±0.3 %ID/g
  uptake in brain: 1.3±0.1 %ID/g
  uptake in heart: 5.6±0.6 %ID/g
  uptake in kidney: 16±2.2 %ID/g
  uptake in liver: 6.3±0.8 %ID/g
  uptake in lung: 3.1±0.4 %ID/g
  uptake in muscle: 3.5±0.5 %ID/g
  uptake in pancreas: 52±3.8 %ID/g
  uptake in spleen: 13±1.4 %ID/g
  uptake in tumor: 8.4±1.1 %ID/g
DU145 tumor xenograft; 60 min post injection
  uptake in blood: 2.2±0.3 %ID/g
  uptake in bone: 3.2±0.7 %ID/g
  uptake in brain: 1.5±0.3 %ID/g
  uptake in heart: 4.8±1.0 %ID/g
  uptake in kidney: 10±0.8 %ID/g
  uptake in liver: 5.5±1.0 %ID/g
  uptake in lung: 2.0±0.4 %ID/g
  uptake in muscle: 3.0±0.7 %ID/g
  uptake in pancreas: 39±6.9 %ID/g
  uptake in spleen: 11±2.9 %ID/g
  uptake in tumor: 7.9±1.7 %ID/g
DU145 tumor xenograft; 120 min post injection
  uptake in blood: 1.6±0.3 %ID/g
  uptake in bone: 2.6±0.5 %ID/g
  uptake in brain: 1.6±0.2 %ID/g
  uptake in heart: 4.9±0.9 %ID/g
  uptake in kidney: 7.9±0.7 %ID/g
  uptake in liver: 3.6±0.6 %ID/g
  uptake in lung: 2.1±0.8 %ID/g
  uptake in muscle: 2.7±0.8 %ID/g
  uptake in pancreas: 27±4.5 %ID/g
  uptake in spleen: 6.0±0.9 %ID/g
  uptake in tumor: 6.8±0.8 %ID/g
[2]; 10 mM BCH
  Cell uptake: 7.6±0.2 % ID/5×10^5 cells
[2]; 10 mM MeAIB
  Cell uptake: 4.6±0.1 % ID/5×10^5 cells
[2]; Control (no inhibitor)
  Cell uptake: 9.2±0.2 % ID/5×10^5 cells
[2]; SKOV3 cells, 10 mM BCH, relative to control
  inhibition of uptake by BCH: 17%
[2]; SKOV3 cells, 10 mM MeAIB, relative to control
  inhibition of uptake by MeAIB: 50%
[3]; 10 mM BCH, relative to control, most cell lines
  inhibition of uptake by BCH: 36-68%
[3]; 10 mM MeAIB, relative to control, most cell lines
  inhibition of uptake by MeAIB: 10-32%
[3]; 30 minutes incubation, without inhibitors, range over the cell lines
  uptake in tumor cells: 5-9 %ID/5×10^5 cells
[3]; AAT cell inhibition assays with MeAIB and BCH
  amino acid transport system mediating uptake / selectivity: mixed AATs, likely but not limited to system A and system L
